Data reported in patent publication US20080248008A1, “Inhibitors of Protein Kinase a Anchoring” (priority 2004, published 2008).
“Also recorded” adds a separate entry of the source.

Assays:
[1] = system: N-terminal RIα deletion mutants; test: R-overlay with N-terminal RIα deletion mutants; type: binding; conditions: compared with RIα
Procedure: (§1) R-overlay. R-overlays were conducted as described, using ^32P-labeled recombinant murine RII (Hausken, Z. E., et al., 1998 in Protein Targeting Protocols, ed. Clegg, R. A. (Humana, Totowa, N.J.), Vol. 88, pp. 47-64) or recombinant bovine RI (A98S) or by cold RI-overlay where bound RIα was detected by Western blot. Cold RI-overlay was performed by incubating the membranes with 250 nM RI overnight at 4° C., then the membranes were washed five times in TBST for 5 min. Detection of RI was performed using an anti-RI rabbit polyclonal antibody (Santa Cruz) at a concentration of 0.2 μg/μl for 1 hour at 4° C. Then the membranes were washed five times for 5 minutes in PBS followed by incubation with HRP-conjugated anti-rabbit IgGs (1:5000) for 1 hour at 4° C. The membranes were washed in PBS as described above before detection by Supersignal West Dura Extended Duration Substrate (Pierce).
(§2) Constructs and mutagenesis. […]
(§3) MEME3 and SM3 (scrambled negative control peptide) were cloned by preferred codon usage (Haas et al., 1996, Current Biol., 6:315-324) and with an N-terminal GFP-fusion. Lysate from transfected HEK293 cells (FIG. 10, left panel in A) and MEME3 synthesized on membrane (right panel in A) were analysed for R binding by RIα-^32P-overlay and RIIα-^32P overlay. […]

[2] = biological target: T1, N-terminal RIα deletion mutants (Bos taurus, UniProt P00514, A98S); test: R-overlay with N-terminal RIα deletion mutants; type: binding
T1 construct: made in house; host or cells: E. coli BL21 (B121 [sic])
T1 sequence (P00514 25-380 A98S): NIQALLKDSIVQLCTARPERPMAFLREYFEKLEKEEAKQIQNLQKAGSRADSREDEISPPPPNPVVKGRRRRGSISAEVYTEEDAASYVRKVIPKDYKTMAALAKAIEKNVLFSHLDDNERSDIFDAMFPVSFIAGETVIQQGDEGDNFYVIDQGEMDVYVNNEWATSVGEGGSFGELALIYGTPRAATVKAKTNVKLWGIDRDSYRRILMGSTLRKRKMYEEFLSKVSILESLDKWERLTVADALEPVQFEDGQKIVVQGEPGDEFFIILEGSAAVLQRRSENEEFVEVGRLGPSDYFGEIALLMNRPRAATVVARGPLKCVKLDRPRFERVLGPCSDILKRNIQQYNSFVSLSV
Procedure: as §1, §2, §3

mice with MAIDS = test: T cell proliferative response after in vivo treatment of mice with murine AIDS; conditions: 75 mg/kg/day intraperitoneal, 10 days
Procedure: Rad-LS infected mice with MAIDS (10-12 weeks postinfection) were treated with MEME3-Arg11 in doses corresponding to those used for other bioactive peptides in studies in mice. Parenteral administration was accomplished by injecting intraperitoneally peptide formulated in PBS. Thus, MAIDS mice were injected with vehicle (phosphate buffered saline, PBS, Ctr.) or treated with MEME3-Arg11 in PBS (M3) by intraperitoneal injection (75 mg/kg/day administered once daily) for 10 days (left panel). In parallel, healthy, uninfected mice were injected with PBS (Ctr.) or MEME3-Arg11 in PBS (M3) (right panel). Subsequently, T cell proliferative responses were assessed in vitro in a mixed population of unsorted lymph node mononuclear cells from treated and untreated animals by [^3H]-thymidine incorporation. T cell activation was accomplished in all samples by cross-ligation of anti-CD3 (mAb 2C11; 4 µg/ml). Cells were cultured for 72 h during which MEME3-Arg11 was added back. [^3H]-thymidine was included for the last 4 hours.

PKA-RIα = biological target: T2, PKA-RIα (Mus musculus, UniProt Q9DBC7); test: Immunofluorescence of PKA-RIα at mitochondria in Y1 adrenal cells; type: cell-based
T2 construct: host or cells: mouse Y-1 adrenocortical cells
Procedure: Mouse adrenocortical Y1 cells were obtained from ATCC (Cat. No. CCL-79) and maintained in DMEM/HAM'S F-12 (Cat. No. E15-813, PAA Laboratories GmbH, Pasching, Austria) supplemented with 100 μg/ml streptomycin, 100 U/ml penicillin and 10% (v/v) fetal calf serum in a humidified atmosphere of 5% CO2 and split by trypsination at less than 80% confluence.
Immunofluorescence analysis of cells was performed as previously described (Collas, P. et al., 1996, J. Cell Biol. 135, 1715-1725). RI was detected by using an anti-RI monoclonal antibody (Transduction Laboratories) as a primary antibody at a […] and Alexa-488 as a secondary antibody (1:600, Goat anti Mouse IgGs, Molecular Probes). Immunofluorescence was performed on Y1 cells attached to collagen/fibronectin coated coverslips. Mitochondria were stained using MitoTracker Red CMXRos (Molecular Probes) in fresh medium with incubation at 37° C. for 30 min prior to cell fixation. All cells were washed in PBS, fixed with 3% paraformaldehyde and permeabilised using 0.1% Triton X-100. Proteins were blocked in 2% BSA/PBST prior to antibody labeling. […] Alternatively, fluorescently labeled cells were examined using a Leica TCS SP1 confocal fluorescence microscope (Leica, Heidelberg, Germany) equipped with an Ar (488 nm) and two He/Ne (543 and 633 nm) laser lines. […]

Row | Molecule | binding to RIα (Δ1-11) and RIα (Δ1-15) (overlay) [1] | binding to RIα (Δ1-24) (overlay) [2] | T cell responses to anti-CD3 ([3H]-thymidine) compared to infected, control-treated mice (mice with MAIDS) | displacement of PKA-RIα from mitochondria (PKA-RIα)
1 | CC[C@H](C)[C@H](NC(=O)[C@H](CCC(N)=O)NC(=O)[C@H](CC(=O)O)NC(=O)[C@H](C)NC(=O)[C@H](CC(C)C)NC(=O)[C@H](CCC(N)=O)NC(=O)[C@H](CC(N)=O)NC(=O)[C@H](C)NC(=O)[C@H](Cc1ccc(O)cc1)NC(=O)[C@H](CCC(N)=O)NC(=O)[C@H](CCC(=O)O)NC(=O)[C@@H](N)CC(C)C)C(=O)N[C@H](C(=O)N[C@@H](CCCCN)C(=O)N[C@@H](CCC(=O)O)C(=O)N[C@@H](C)C(=O)N[C@H](C(=O)N[C@@H](CCC(=O)O)C(=O)N[C@@H](CCCCNC(=O)c1ccc2c(c1)C(=O)OC21c2ccc(O)cc2Oc2cc(O)ccc21)C(N)=O)[C@@H](C)O)[C@@H](C)CC [MEME3] | even higher affinity | No binding | – | –
2 | LEQYANQLADQIIKEATERRRRRRRRRrr [MEME3-Arg11] | – | – | significant increase (p=0.013); also recorded: increased more than three-fold | displaced from mitochondria
